The text below walks through data of patent publication US20230382910A1, “HETEROARYL COMPOUNDS FOR THE TREATMENT OF PAIN” (VERTEX PHARMACEUTICALS INCORPORATED, priority 2022, published 2023).

The target of the assay is human NaV 1.8 (Homo sapiens, UniProt Q9Y5Y9). Description: E-VIPR Assay Detecting and Measuring NaV Inhibition Properties. It counts as cell-based. The note with it: HEK cells expressing a truncated form of human NaV 1.8; electrical stimulation, membrane potential FRET dyes; read-out: measured IC50 value in the E-VIPR Assay. An excerpt: E-VIPR Assay Detecting and Measuring NaV Inhibition Properties
Sequence of human NaV 1.8 (Q9Y5Y9 126-399 limits assumed): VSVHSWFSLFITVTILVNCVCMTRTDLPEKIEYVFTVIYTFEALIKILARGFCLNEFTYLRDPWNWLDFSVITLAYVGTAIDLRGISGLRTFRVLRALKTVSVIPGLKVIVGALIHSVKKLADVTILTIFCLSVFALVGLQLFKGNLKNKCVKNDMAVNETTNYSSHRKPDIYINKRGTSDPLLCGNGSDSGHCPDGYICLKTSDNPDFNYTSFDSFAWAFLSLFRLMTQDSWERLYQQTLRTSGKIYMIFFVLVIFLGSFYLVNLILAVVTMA
Sequence of human NaV 1.8 (Q9Y5Y9 660-890 limits assumed): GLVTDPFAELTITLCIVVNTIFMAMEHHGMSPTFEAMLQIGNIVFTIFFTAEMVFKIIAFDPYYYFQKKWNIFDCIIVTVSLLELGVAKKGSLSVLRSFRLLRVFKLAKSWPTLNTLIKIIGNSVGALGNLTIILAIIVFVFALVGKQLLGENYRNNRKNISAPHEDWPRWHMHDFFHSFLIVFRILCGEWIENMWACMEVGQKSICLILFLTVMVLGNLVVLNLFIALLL
Sequence of human NaV 1.8 (Q9Y5Y9 1148-1722 limits assumed): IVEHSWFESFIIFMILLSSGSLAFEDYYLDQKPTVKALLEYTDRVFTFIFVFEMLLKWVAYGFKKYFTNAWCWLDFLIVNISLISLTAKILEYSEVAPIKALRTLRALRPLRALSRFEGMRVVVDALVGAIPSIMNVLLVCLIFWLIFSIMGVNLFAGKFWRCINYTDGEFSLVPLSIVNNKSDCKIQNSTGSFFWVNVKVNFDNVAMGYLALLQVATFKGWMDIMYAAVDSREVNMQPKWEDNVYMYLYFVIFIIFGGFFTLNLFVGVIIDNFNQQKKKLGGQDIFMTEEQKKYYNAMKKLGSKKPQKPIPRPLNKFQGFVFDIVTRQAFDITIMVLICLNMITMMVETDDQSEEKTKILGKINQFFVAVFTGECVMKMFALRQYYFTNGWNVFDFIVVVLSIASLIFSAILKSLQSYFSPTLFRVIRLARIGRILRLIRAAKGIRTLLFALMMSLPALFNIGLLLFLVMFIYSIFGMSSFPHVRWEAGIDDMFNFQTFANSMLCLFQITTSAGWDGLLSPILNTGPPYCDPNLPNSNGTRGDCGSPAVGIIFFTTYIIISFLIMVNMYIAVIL
Sodium ion channels are voltage-dependent proteins that can be activated by inducing membrane voltage changes by applying electric fields. The electrical stimulation instrument and methods of use, referred to as E-VIPR, are described in International Publication No. WO 2002/008748 A3 and C.-J. Huang et al. Characterization of voltage-gated sodium channel blockers by electrical stimulation and fluorescence detection of membrane potential, 24 Nature Biotech. 439-46 (2006), both of which are incorporated by reference in their entirety. The instrument comprises a microtiter plate handler, an optical system for exciting the coumarin dye while simultaneously recording the coumarin and oxonol emissions, a waveform generator, a current- or voltage-controlled amplifier, and parallel electrode pairs that are inserted into assay plate wells. Under integrated computer control, this instrument passes user-programmed electrical stimulus protocols to cells within the wells of the microtiter plate.
16-20 hours prior to running the assay on E-VIPR, HEK cells expressing a truncated form of human NaV 1.8 with full channel activity were seeded into microtiter 384-well plates, pre-coated with matrigel, at a density of 25,000 cells per well. 2.5-5% KIR2.1 BacMam virus was added to the final cell suspension before seeding into cell plates. HEK cells were grown in Dulbecco's Modified Eagle's Medium (DMEM) supplemented with 10% FBS (Fetal Bovine Serum, qualified; Sigma #F4135), 1% NEAA (Non-Essential Amino Acids, Gibco #11140), 1% HEPES (Gibco #15630), 1% Pen-Strep (Penicillin-Streptomycin; Gibco #15140) and 5 μg/ml Blasticidin (Gibco #R210-01). Cells were expanded in 5-layer CellSTACK culture chambers or cell culture flasks with vented caps, with 90-95% humidity and 5% CO2.
Compound Loading Buffer (2× concentration): Na/TMA Cl Bath1 Buffer containing HS (omitted in experiments run in the absence of human serum (HS)) 50%, VABSC-1 1 mM, BSA 0.2 mg/ml (in Bath-1), KCl 9 mM, DMSO 0.625%.
Assay Protocol (7 Key Steps):
1) To reach the final concentration in each well, 375 nL of each compound was pre-spotted (in neat DMSO) into polypropylene compound plates at 240× desired final concentration from an intermediate stock concentration of 0.075 mM, in an 11-point dose response, 3-fold dilution, resulting in a top dose of 300 nM final concentration in the cell plate. Vehicle control (neat DMSO), and positive control (an established NaV1.8 inhibitor, 25 μM final in assay in DMSO) were added manually to the outermost columns of each plate respectively. The compound plate was backfilled with 45 μL per well of Compound Loading Buffer resulting in a 240-fold dilution of compound following a 1:1 transfer of compound into the cell plate (see Step 6). Final DMSO concentration for all wells in the assay was 0.625% (0.75% DMSO was supplemented to the Compound Loading Buffer for a final DMSO concentration of 0.625%). This assay dilution protocol was adjusted to enable a higher dose range to be tested in the presence of HS or if the final assay volume was altered.
2) Hexyl Dye Solution was prepared.
3) Cell plates were prepared. On the day of the assay, the media was aspirated, and the cells were washed three times with 80 μL of Bath-1 buffer, maintaining 25 μL residual volume in each well.
4) 25 μL per well of Hexyl Dye Solution was dispensed into the cell plates. The cells were incubated for 20 minutes at room temperature or ambient conditions in darkness.
5) 45 μL per well of Compound Loading Buffer was dispensed into compound plates.
6) The cell plates were washed three times with 80 μL per well of Bath-1 Buffer, leaving 25 µL of residual volume. Then 25 μL per well from compound plate was transferred to each cell plate. The mixture was incubated for 30 minutes at room temperature/ambient conditions. […]
A word on the IC50: it is the concentration at which inhibition is half-maximal. Take `Cc1cc(C)c(C(C)C)cc1-c1cc(=O)c2c(C(N)=O)nccc2[nH]1` [Compound 234, 2-(5-isopropyl-2,4-dimethyl-phenyl)-4-oxo-1H-1,6-naphthyridine-5-carboxamide]: the 50% inhibitory concentration (IC50) was in the range of 500 to 2000 nM.
The same measure for `CC1(C)CCC(C)(C)c2cc(-c3cc(=O)c4c(C(N)=O)nccc4[nH]3)ccc21` [Compound 239, 4-oxo-2-(1,1,4,4-tetramethyltetralin-6-yl)-1H-1,6-naphthyridine-5-carboxamide]: 500 to 2000 nM.
The result for `Cc1nc(C(C)(C)C)c(C)nc1-c1cc(=O)c2c(C(N)=O)nccc2[nH]1` [Compound 246, 2-(5-tert-butyl-3,6-dimethyl-pyrazin-2-yl)-4-oxo-1H-1,6-naphthyridine-5-carboxamide] reads 500 to 2000 nM; that for `CC(C)(C)c1cc(F)c(-c2cc(O)c3c(C(N)=O)nccc3n2)c(F)c1` [Compound 247, 2-(4-(tert-butyl)-2,6-difluorophenyl)-4-hydroxy-1,6-naphthyridine-5-carboxamide], 500 to 2000 nM; that for `Cc1nc(-c2ccccc2)c(Cl)cc1-c1cc(=O)c2c(C(N)=O)nccc2[nH]1` [Compound 273, 2-(5-chloro-2-methyl-6-phenyl-3-pyridyl)-4-oxo-1H-1,6-naphthyridine-5-carboxamide], 500 to 2000 nM.
The result for `Cc1nc(C2(C)CC2)c(Cl)cc1-c1cc(=O)c2c(C(N)=O)nccc2[nH]1` [Compound 286, 2-[5-chloro-2-methyl-6-(1-methylcyclopropyl)-3-pyridyl]-4-oxo-1H-1,6-naphthyridine-5-carboxamide] reads 500 to 2000 nM.
As to `Cc1nc(C(C)(C)CO)c(Cl)cc1-c1cc(=O)c2c(C(N)=O)nccc2[nH]1` [Compound 297, 2-[5-chloro-6-(2-hydroxy-1,1-dimethyl-ethyl)-2-methyl-3-pyridyl]-4-oxo-1H-1,6-naphthyridine-5-carboxamide], the IC50 was 2000 to 5000 nM.
The same measure for `Cc1cc(C(C)(C)C)ccc1-c1cc(=O)c2nc(OCCN(C)C)ccc2[nH]1` [Compound 304, 2-(4-tert-butyl-2-methyl-phenyl)-6-[2-(dimethylamino)ethoxy]-1H-1,5-naphthyridin-4-one]: 500 to 2000 nM; for `COc1cc(C(C)C)cc(C)c1-c1cc(=O)c2ccccc2[nH]1` [Compound 337, 2-(4-isopropyl-2-methoxy-6-methyl-phenyl)-1H-quinolin-4-one]: 500 to 2000 nM; for `CC(C)(C)c1ccc(-c2cc(=O)c3cnccc3[nH]2)c(CCCO)c1` [Compound 346, 2-[4-tert-butyl-2-(3-hydroxypropyl)phenyl]-1H-1,6-naphthyridin-4-one]: 2000 to 5000 nM.
The same measure for `CC(C)(C)c1ccc(-c2[nH]c3ccncc3c(=O)c2Br)c(CCCO)c1` [Compound 347, 3-bromo-2-[4-tert-butyl-2-(3-hydroxypropyl)phenyl]-1H-1,6-naphthyridin-4-one]: 2000 to 5000 nM.
The result for `CC(C)CN(CC(C)C)c1nc2ccccc2cc1-c1cc(=O)c2c(C(N)=O)nccc2[nH]1` [Compound 351, 2-[2-(diisobutylamino)-3-quinolyl]-4-oxo-1H-1,6-naphthyridine-5-carboxamide] reads 2000 to 5000 nM; that for `CCCN(CCC)c1nc2ccccc2cc1-c1cc(=O)c2c(C(N)=O)nccc2[nH]1` [Compound 352, 2-[2-(dipropylamino)-3-quinolyl]-4-oxo-1H-1,6-naphthyridine-5-carboxamide], 2000 to 5000 nM.
In the case of `CCCCN(CC)c1nc2ccccc2cc1-c1cc(=O)c2c(C(N)=O)nccc2[nH]1` [Compound 353, 2-[2-[butyl(ethyl)amino]-3-quinolyl]-4-oxo-1H-1,6-naphthyridine-5-carboxamide], the IC50 was 500 to 2000 nM.
The result for `Cc1cc(C(C)(C)CO)c(Cl)cc1-c1cc(=O)c2c(C(N)=O)nccc2[nH]1` [Compound 356, 2-[5-chloro-4-(2-hydroxy-1,1-dimethyl-ethyl)-2-methyl-phenyl]-4-oxo-1H-1,6-naphthyridine-5-carboxamide] reads 2000 to 5000 nM.
